Laboratory results reported in patent US20070049569A1, “Methods of using fatty-acid esters of estrogens and thermogenic compounds for reducing the body weight of a mammal and compositions containing the same” (Oleoyl-Estrone Developments SL, priority 2004, published 2007).

Tests used:
[1] = Body weight and lipid changes of overweight male Wistar rats in the 10-day period of treatment; format: in vivo; details: 10-day treatment; oleoyl-estrone 10 micromol/kg daily gavage; CL-316243 1 mg/kg daily s.c. infusion
Excerpt: (§1) Forty-five day-old male Wistar rats were used. The rats were kept in collective cages in a light cycle, temperature, and humidity-controlled environment. They were fed tap water and a self-selected cafeteria diet (containing an excess of tasty, energy-dense foods, as well as standard chow) for 45 additional days. Then they were subjected to a 5-day diet adaptation period, in which they had rat chow as the sole food available. At this point, the rats weighed 350-370 g and had significant amounts of body fat. Maintaining the availability of rat chow (daily consumption by the group was recorded) and tap water, body weight was recorded daily. The animals were given a daily gavage of either 0.2 mL of sunflower oil or the same vehicle containing oleoyl-estrone to a daily dose of 10 micromol/kg of body weight.
(§2) This standard feeding and drug administration schedule was complemented by treating one half of the animals receiving only oil and one half of the animals receiving oil and oleoyl-estrone with a daily dose of 1 mg/kg of CL-316243, a beta-3 adrenergic agonist. This drug was continuously administered by means of subcutaneous infusion using Alzet osmotic minipumps (model 2002; 0.5 microliter/h) loaded with drug dissolved in saline. The minipumps were inserted subcutaneously in the dorsal lumbar area of the experimental animals by means of a short cut in the skin. The pumps were tested before their implantation, and the fluid remaining in the minipumps was later measured in order to check the effectiveness of the infusion.
(§3) The treatment was maintained up to 10 days, when the animals were killed by decapitation, and their blood and carcass were used for analyses.
The rat corpses, partially exsanguinated were dissected. The stomach and intestines were cleaned of their contents. The remaining carcass was sealed into polyethylene bags, autoclaved and blended to a fine paste. This paste was analyzed for lipid content by extraction using trichloromethane/methanol and corrected by its water content. Lipid content in the paste was referred to whole in vivo body weight for comparison.
(§4) Samples of the rat paste were dried and used for the estimation of their caloric content using a bomb calorimeter. The initial values for lipid content were calculated from the corresponding in vivo body weights at the beginning of the experiment and applying to all the animals the mean percentage of lipid content found in the control (vehicle only) group at the end of the experiment. This same procedure was used to determine the overall energy content of the carcasses by using the experimentally found energy content of the rats in the control group. Likewise, the energy content of the pellet diet was also measured and used to estimate the energy intake of the animals.

[2] = Energy balance (carcass energy content, energy intake, energy expenditure) of treated male Wistar rats; format: in vivo; details: 10-day treatment; for changes in energy expenditure versus control group (in words): estimated as energy intake minus accrual; for loss of body energy: oleoyl-estrone 10 micromol/kg daily gavage, CL-316243 1 mg/kg daily s.c. infusion; for decrease in food consumption: versus control group
Excerpt: as §1, §2, §3, §4
Energy expenditure (Ee) was estimated as the difference between energy intake (Ei) and accrual (Ea), since: Ei=Ee±Ea.

| SMILES | loss of body weight [1] | loss of lipid (lipid stores) [1] [%] | contribution of internal reserves to fuel the energy expenditure [2] [%] | changes in energy expenditure versus control group (in words) [2] | loss of body energy [2] [kJ] | increase in energy expenditure ([2]; rats treated with the beta-3 agonist, alone or with oleoyl-estrone) [%] | decrease in food consumption [2] |
| --- | --- | --- | --- | --- | --- | --- | --- |
| C[C@H](Cc1ccc2c(c1)OC(C(=O)[O-])(C(=O)[O-])O2)NC[C@H](O)c1cccc(Cl)c1.[Na+].[Na+] [beta-3 agonist] | less than 3% | 42 | 28 | higher than that of the control group by more than one-third | 821 | 136 | did not show a significant loss of appetite |
| CCCCCCCC/C=C\CCCCCCCC(=O)Oc1ccc2c(c1)CC[C@@H]1[C@@H]2CC[C@]2(C)C(=O)CC[C@@H]12 [oleoyl-estrone, [3(Z)]-3-[(1-oxo-9-octadecenyl)oxy]-estra-1,3,5(10)-trien-17-one] | about 8% | 13 | 19 | slight decrease | 354 | – | 32% |
